Source: US20080139564A1, “SUBSTITUTED PHENYL PROPYL AMINES AS HISTAMINE H3 RECEPTOR AND SEROTONIN TRANSPORTER MODULATORS” (priority 2006, published 2008)
Read-outs that look alike come from different tables or passages of the source.

Experiments:
human H3 receptor [1] = biological target: T1, human H3 receptor (Homo sapiens, UniProt Q9Y5N1); experiment: H3 receptor binding (N-[3H]-α-methylhistamine displacement, SK-N-MC cell membranes); details: 0.8 nM N-[3H]-α-methylhistamine, 60 min at 25° C.
T1 construct: expressed in transfected cells
T1 sequence (Q9Y5N1 whole entry): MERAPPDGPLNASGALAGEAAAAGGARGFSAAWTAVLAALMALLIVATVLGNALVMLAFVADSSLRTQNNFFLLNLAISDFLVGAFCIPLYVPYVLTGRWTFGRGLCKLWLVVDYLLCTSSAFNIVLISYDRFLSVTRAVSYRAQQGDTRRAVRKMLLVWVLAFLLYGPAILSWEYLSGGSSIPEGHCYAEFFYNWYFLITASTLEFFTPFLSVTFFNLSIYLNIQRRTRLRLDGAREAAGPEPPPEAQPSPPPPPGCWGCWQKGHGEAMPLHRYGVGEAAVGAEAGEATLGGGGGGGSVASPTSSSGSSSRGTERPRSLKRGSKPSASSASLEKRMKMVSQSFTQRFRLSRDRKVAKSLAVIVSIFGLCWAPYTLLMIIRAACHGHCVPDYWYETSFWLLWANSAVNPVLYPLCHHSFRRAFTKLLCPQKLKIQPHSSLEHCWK
Protocol: Binding of compounds to the cloned human H3 receptor, stably expressed in SK-N-MC cells, was performed (Lovenberg, T. W. et al. J. Pharmacol. Exp. Ther. 2000, 293, 771-778). Briefly, cell pellets from SK-N-MC cells expressing the human H3 receptor were homogenized in 50 mM Tris-HCl/5 mM EDTA and re-centrifuged at 30,000 g for 30 min. Pellets were re-homogenized in 50 mM Tris/5 mM EDTA (pH 7.4). Membranes were incubated with 0.8 nM N—[^3H]-α-methylhistamine plus/minus test compounds for 60 min at 25° C. and harvested by rapid filtration over GF/C glass fiber filters (pretreated with 0.3% polyethylenimine) followed by four washes with ice-cold buffer. Nonspecific binding was defined in the presence of 10 μM histamine.

Rat SERT = biological target: T2, Rat SERT (Rattus norvegicus, UniProt P31652); experiment: Rat brain SERT binding ([3H]-Citalopram displacement, rat brain membranes); details: 0.6 nM [3H]-Citalopram, 60 min at 25° C.
T2 construct: A rat brain without cerebellum (Zivic Laboratories, Inc.—Pittsburgh, Pa.) was homogenized; tissue Zivic Laboratories, Inc; host or cells: rat brain without cerebellum
T2 sequence (P31652 whole entry): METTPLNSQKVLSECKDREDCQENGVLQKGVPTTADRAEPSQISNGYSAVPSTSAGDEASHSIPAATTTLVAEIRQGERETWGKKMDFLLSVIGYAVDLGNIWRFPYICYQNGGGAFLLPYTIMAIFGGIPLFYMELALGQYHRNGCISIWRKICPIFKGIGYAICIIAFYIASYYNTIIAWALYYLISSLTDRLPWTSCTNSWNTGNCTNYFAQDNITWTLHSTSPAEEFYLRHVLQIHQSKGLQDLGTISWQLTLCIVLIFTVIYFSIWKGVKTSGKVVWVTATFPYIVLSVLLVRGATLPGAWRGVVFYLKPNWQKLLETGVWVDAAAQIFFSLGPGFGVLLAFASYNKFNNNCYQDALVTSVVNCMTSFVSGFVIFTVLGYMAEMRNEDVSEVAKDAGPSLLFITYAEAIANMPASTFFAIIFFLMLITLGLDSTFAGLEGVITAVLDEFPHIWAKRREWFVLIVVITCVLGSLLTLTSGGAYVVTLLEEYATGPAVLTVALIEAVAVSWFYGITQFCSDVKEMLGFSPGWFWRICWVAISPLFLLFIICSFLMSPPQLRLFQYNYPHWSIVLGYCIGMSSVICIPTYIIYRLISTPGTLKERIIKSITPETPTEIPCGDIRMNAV
Protocol: A rat brain without cerebellum (Zivic Laboratories, Inc.—Pittsburgh, Pa.) was homogenized in a 52.6 mM Tris pH 8/126.4 mM NaCl/5.26 mM KCl mixture and centrifuged at 1,000 rpm for 5 min. The supernatant was removed and re-centrifuged at 15,000 rpm for 30 min. Pellets were re-homogenized in a 52.6 mM Tris pH8/126.4 mM NaCl/5.26 mM KCl mixture. Membranes were incubated with 0.6 nM [^3H]-Citalopram plus/minus test compounds for 60 min at 25° C. and harvested by rapid filtration over GF/C glass fiber filters (pretreated with 0.3% polyethylenimine) followed by four washes with ice-cold buffer. Nonspecific binding was defined in the presence of 100 μM fluoxetine.

human SERT = biological target: T3, human SERT (Homo sapiens, UniProt P31645); experiment: Human SERT binding (3H-citalopram displacement, HEK293 membranes); details: 3H-citalopram 3.1 nM, rt for 1 h
T3 construct: expressed in transfected cells; host or cells: HEK293
T3 sequence (P31645 whole entry): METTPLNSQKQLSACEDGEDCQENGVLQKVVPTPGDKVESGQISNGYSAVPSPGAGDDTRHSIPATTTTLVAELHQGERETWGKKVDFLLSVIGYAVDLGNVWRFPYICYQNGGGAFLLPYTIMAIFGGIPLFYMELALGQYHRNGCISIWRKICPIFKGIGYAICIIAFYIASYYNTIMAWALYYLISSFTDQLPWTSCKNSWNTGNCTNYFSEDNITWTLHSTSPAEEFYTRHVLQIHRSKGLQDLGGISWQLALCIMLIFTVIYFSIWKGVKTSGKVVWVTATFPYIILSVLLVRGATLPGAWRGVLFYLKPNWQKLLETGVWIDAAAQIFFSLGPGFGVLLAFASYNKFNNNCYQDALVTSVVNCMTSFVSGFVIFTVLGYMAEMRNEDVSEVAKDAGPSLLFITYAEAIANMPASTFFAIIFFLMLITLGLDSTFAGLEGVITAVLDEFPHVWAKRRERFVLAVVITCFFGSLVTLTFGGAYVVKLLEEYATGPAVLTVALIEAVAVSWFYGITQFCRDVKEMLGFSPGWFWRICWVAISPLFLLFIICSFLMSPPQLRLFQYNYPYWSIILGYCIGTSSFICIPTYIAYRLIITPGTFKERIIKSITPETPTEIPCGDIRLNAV
Protocol: Homogenized HEK293 (Human Embryonic Kidney) membranes expressing the human SERT were incubated with ^3H-citalopram (SERT) at rt for 1 h in 50 mM Tris, 120 mM NaCl, 5 mM KCl (pH 7.4). Nonspecific binding was determined in the presence of 10 μM fluoxetine for the SERT. The membranes were washed and the radioactivity was counted as above. Calculations for Ki at the SERT were based on a Kd value for ^3H-citalopram and a ligand concentration of 3.1 nM.

human H3 receptor [2] = biological target: T1, human H3 receptor; experiment: Cyclic AMP accumulation (β-galactosidase reporter in SK-N-MC cells); format: cell-based
Protocol: Sublines of SK-N-MC cells were created that expressed a reporter construct and the human H3 receptor. The reporter gene (β-galactosidase) is under the control of multiple cyclic AMP responsive elements. In 96-well plates, histamine was added directly to the cell media followed 5 min later by an addition of forskolin (5 μM final concentration). When appropriate, antagonists were added 10 min prior to agonist addition. After a 6-h incubation at 37° C., the media was aspirated and the cells washed with 200 μL of phosphate-buffered saline followed by a second aspiration. Cells were lysed with 25 μL 0.1× assay buffer (10 mM Na-phosphate, pH 8, 0.2 mM MgSO4, 0.01 mM MnCl2) and incubated at rt for 10 min. Cells were then incubated for 10 min with 100 μL of 1× assay buffer containing 0.5% Triton and 40 mM β-mercaptoethanol. Color was developed using 25 μL of 1 mg/mL substrate solution (chlorophenolred β-D galactopyranoside; Roche Molecular Biochemicals, Indianapolis, Ind.). Color was quantitated on a microplate reader at absorbance 570 nm. The pA2 values were calculated by Schild regression analysis of the pEC50 values.

[3] = Schild regression analysis of the pEC50 values, histamine agonist, forskolin 5 μM, SK-N-MC reporter cells, read-out: pA2 (converted)

Row | SMILES | Ki (human H3 receptor [1]) [nM] | Ki (Rat SERT) [nM] | Ki (human SERT) [nM] | Kb (human H3 receptor [2]; [3]) [nM] | Kb (human H3 receptor [2]; read-out: pA2 (converted)) [nM] | Kb (human H3 receptor [2]) [nM]
1 | CN(C)CCC(Oc1ccccc1)c1ccc(OCCCN2CCCCC2)cc1 (centres unmarked) [Example 1, Dimethyl-[3-phenoxy-3-[4-(3-piperidin-1-yl-propoxy)-phenyl]-propyl]-amine] | 0.7 | 1 | 26 | – | – | 0.468
2 | COc1cccc(OC(CCN(C)C)c2ccc(OCCCN3CCCCC3)cc2)c1 (centres unmarked) [Example 13, {3-(3-Methoxy-phenoxy)-3-[4-(3-piperidin-1-yl-propoxy)-phenyl]-propyl}-dimethyl-amine] | 0.7 | 3 | 11 | – | 0.617 | –
3 | CN(C)CCC(Oc1cccnc1)c1ccc(OCCCN2CCCCC2)cc1 (centres unmarked) [Example 18, Dimethyl-[3-[4-(3-piperidin-1-yl-propoxy)-phenyl]-3-(pyridin-3-yloxy)-propyl]-amine] | 0.3 | 9 | 91 | – | 0.0631 | –
4 | CN(C)CCC(Oc1ccc2[nH]ccc2c1)c1ccc(OCCCN2CCCCC2)cc1 (centres unmarked) [Example 19, {3-(1H-Indol-5-yloxy)-3-[4-(3-piperidin-1-yl-propoxy)-phenyl]-propyl}-dimethyl-amine] | 1 | 44 | – | – | 0.977 | –
5 | CN(C)CCC(Oc1ccccc1)c1ccc(C#CCCN2CCCCC2)cc1 (centres unmarked) [Example 21, Dimethyl-{3-phenoxy-3-[4-(4-piperidin-1-yl-but-1-ynyl)-phenyl]-propyl}-amine] | 1.2 | 5 | 29 | – | 0.661 | –
6 | CC(C)N1CCC(Oc2ccc(C(CCN(C)C)Oc3ccccc3)cc2)CC1 (centres unmarked) [Example 36, {3-[4-(1-Isopropyl-piperidin-4-yloxy)-phenyl]-3-phenoxy-propyl}-dimethyl-amine] | 0.8 | 36 | 169 | – | 6.92 | –
7 | CC(C)N1CCN(C(=O)c2ccc(C(CCN(C)C)Oc3ccccc3)cc2)CC1 (centres unmarked) [Example 38, [4-(3-Dimethylamino-1-phenoxy-propyl)-phenyl]-(4-isopropylpiperazin-1-yl)-methanone] | 0.7 | 161 | 245 | – | 0.214 | –
8 | CC(C)N1CCC(Oc2ccc(OC(CCN(C)C)c3ccc(C(F)(F)F)cc3)cc2)CC1 (centres unmarked) [Example 45, [3-[4-(1-Isopropyl-piperidin-4-yloxy)-phenoxy]-3-(4-trifluoromethylphenyl)-propyl]-dimethyl-amine] | 2 | 65 | – | – | 1.48 | –
9 | CN(C)CCC(Oc1ccc(C(F)(F)F)cc1)c1ccc(CN2CCN(C3CCCC3)CC2)cc1 (centres unmarked) [Example 51, [3-[4-(4-Cyclopentyl-piperazin-1-ylmethyl)-phenyl]-3-(4-trifluoromethyl-phenoxy)-propyl]-dimethyl-amine] | 7 | 30 | – | – | 11.2 | –
10 | CCC(C)N1CCN(C(=O)c2ccc(C(CCN(C)C)Oc3ccc(C(F)(F)F)cc3)cc2)CC1 (centres unmarked) [Example 52, (4-sec-Butyl-piperazin-1-yl)-{4-[3-dimethylamino-1-(4-trifluoromethyl-phenoxy)-propyl]-phenyl}-methanone] | 2 | 33 | – | – | 1.2 | –
11 | CCC(CC)N1CCN(C(=O)c2ccc(C(CCN(C)C)Oc3ccc(C(F)(F)F)cc3)cc2)CC1 (centres unmarked) [Example 53, {4-[3-Dimethylamino-1-(4-trifluoromethyl-phenoxy)-propyl]-phenyl}-[4-(1-ethyl-propyl)-piperazin-1-yl]-methanone] | 8 | 102 | – | – | 2.45 | –
12 | CCC(CC)N1CCN(Cc2ccc(C(CCN(C)C)Oc3ccc(C(F)(F)F)cc3)cc2)CC1 (centres unmarked) [Example 54, [3-{4-[4-(1-Ethyl-propyl)-piperazin-1-ylmethyl]-phenyl}-3-(4-trifluoromethyl-phenoxy)-propyl]-dimethyl-amine] | 5 | 37 | – | – | 18.6 | –
13 | CC(C)N1CCN(Cc2ccc(C(CCN(C)C)Oc3ccc(C(F)(F)F)cc3)cc2)CC1 (centres unmarked) [Example 55, [3-[4-(4-Isopropyl-piperazin-1-ylmethyl)-phenyl]-3-(4-trifluoromethyl-phenoxy)-propyl]-dimethyl-amine] | 2 | 27 | – | – | 9.33 | –
14 | CN(C)CCC(Oc1ccc(C#CCCN2CCCCC2)cc1)c1ccc(C(F)(F)F)cc1 (centres unmarked) [Example 60, Dimethyl-[3-[4-(4-piperidin-1-yl-but-1-ynyl)-phenoxy]-3-(4-trifluoromethyl-phenyl)-propyl]-amine] | 24 | 168 | – | – | 17.8 | –

Second part, led by results:

Row | Ki (human H3 receptor [1]) [nM] | Ki (Rat SERT) [nM] | Ki (human SERT) [nM] | Kb (human H3 receptor [2]; [3]) [nM] | Kb (human H3 receptor [2]; read-out: pA2 (converted)) [nM] | SMILES | Kb (human H3 receptor [2]) [nM]
15 | 2.5 | 17 | 14 | 2.95 | – | CN(C)CCC(Oc1ccc(C(F)(F)F)cc1)c1ccc(OCCCN2CCCCC2)cc1 (centres unmarked) [Example 2, Dimethyl-[3-[4-(3-piperidin-1-yl-propoxy)-phenyl]-3-(4-trifluoromethyl-phenoxy)-propyl]-amine] | –
16 | 1 | 2 | 4 | 1.58 | – | CN(C)CCC(Oc1cccc(Br)c1)c1ccc(OCCCN2CCCCC2)cc1 (centres unmarked) [Example 15, {3-(3-Bromo-phenoxy)-3-[4-(3-piperidin-1-yl-propoxy)-phenyl]-propyl}-dimethyl-amine] | –
17 | 9 | 58 | 61 | 5.62 | – | CN(C)CCC(Oc1ccc(C(F)(F)F)cc1)c1ccc(C#CCCN2CCCCC2)cc1 (centres unmarked) [Example 20, Dimethyl-[3-[4-(4-piperidin-1-yl-but-1-ynyl)-phenyl]-3-(4-trifluoromethyl-phenoxy)-propyl]-amine] | –
18 | 6 | 7 | 10 | – | 4.79 | CN(C)CCC(Oc1ccccc1)c1ccc(CCCCN2CCCCC2)cc1 (centres unmarked) [Example 32, Dimethyl-{3-phenoxy-3-[4-(4-piperidin-1-yl-butyl)-phenyl]-propyl}-amine] | –
19 | 2 | – | – | – | 0.933 | CC(C)N1CCN(C(=O)c2ccc(C(CCN(C)C)Oc3ccc(C(F)(F)F)cc3)cc2)CC1 (centres unmarked) [Example 39, {4-[3-Dimethylamino-1-(4-trifluoromethyl-phenoxy)-propyl]-phenyl}-(4-isopropyl-piperazin-1-yl)-methanone] | –
20 | 2 | 18 | 7 | – | 2.19 | CC(C)N1CCN(C(=O)c2ccc(C(CCN(C)C)Oc3ccc(Cl)c(Cl)c3)cc2)CC1 (centres unmarked) [Example 40, {4-[1-(3,4-Dichloro-phenoxy)-3-dimethylamino-propyl]-phenyl}-(4-isopropyl-piperazin-1-yl)-methanone] | –
21 | 1 | 18 | 282 | – | 0.759 | CN(C)CCC(Oc1ccc(OCCCN2CCCCC2)cc1)c1ccccc1 (centres unmarked) [Example 41, Dimethyl-{3-phenyl-3-[4-(3-piperidin-1-yl-propoxy)-phenoxy]-propyl}-amine] | –
22 | 3 | 53 | – | – | 1.48 | CN(C)CCC(Oc1ccc(C(F)(F)F)cc1)c1ccc(C(=O)N2CCN(C3CCCC3)CC2)cc1 (centres unmarked) [Example 50, (4-Cyclopentyl-piperazin-1-yl)-{4-[3-dimethylamino-1-(4-trifluoromethyl-phenoxy)-propyl]-phenyl}-methanone] | –
23 | 0.2 | 633 | 4000 | – | – | c1ccc(OC(CCN2CCCC2)c2ccc(OCCCN3CCCCC3)cc2)cc1 (centres unmarked) [Example 73, 1-{3-[4-(1-Phenoxy-3-pyrrolidin-1-yl-propyl)-phenoxy]-propyl}-piperidine] | –
